# Data taken from patent US8927587B2, “Chemical compounds” (Pfizer Limited, priority 2012, dated 2015).
# Molecular target: T1, hNav1.8 (Homo sapiens, UniProt Q9Y5Y9)
# T1 construct: host or cells: HEK cells, stably transfected
# Test: hNav1.8 whole-cell patch-clamp electrophysiology (conventional or PatchXpress 7000) in stably transfected HEK cells
# Format: cell-based
# Conditions: estimated IC50 calculated from single point % inhibition; HEK cells expressing hNav1.8; 8 sec prepulse to V1/2, 20 msec step to 0 mV; average of replicates; read-out: Nav1.8 EIC50
# Excerpt: The ability of the benzimidazole derivatives of the formula (I) to inhibit the Nav1.8 channel may be measured using the assay described below.
# HEK cells stably transfected with hNav1.8, purchased from Millipore (Millipore Corp., Billerica, Mass. 01821), were maintained according to manufacturer's instructions. For electrophysiological studies, cells were removed from the culture flask by brief trypsinization and re-plated at low density onto glass cover slips. Cells were typically used for electrophysiological experiments within 24 to 72 h after plating.
# Cover slips containing HEK cells expressing hNav1.8 were placed in a bath on the stage of an inverted microscope and perfused (approximately 1 ml/min) with extracellular solution of the following composition: 138 mM NaCl, 2 mM CaCl2, 5.4 mM KCl, 1 mM MgCl2, 10 mM glucose, and 10 mM HEPES, pH 7.4, with NaOH. […] The osmolarity of the extracellular and intracellular solutions was 300 mOsm/kg and 295 mOsm/kg, respectively. All recordings were made at room temperature (22-24° C.) using AXOPATCH 200B amplifiers and PCLAMP software (Axon Instruments, Burlingame, Calif.).
# hNav1.8 currents in HEK cells were measured using the whole-cell configuration of the patch-clamp technique (Hamill et al., 1981). Uncompensated series resistance was typically 2 to 5 mega ohms and >85% series resistance compensation was routinely achieved. As a result, voltage errors were negligible and no correction was applied. Current records were acquired at 20 to 50 KHz and filtered at 5 to 10 KHz.
# HEK cells stably transfected with hNav1.8 were viewed under Hoffman contrast optics and placed in front of an array of flow pipes emitting either control or compound-containing extracellular solutions. All compounds were dissolved in dimethyl sulfoxide to make 10 mM stock solutions, which were then diluted into extracellular solution to attain the final concentrations desired.
# The voltage-dependence of inactivation was determined by applying a series of depolarizing prepulses (8 sec long in 10 mV increments) from a negative holding potential. The voltage was then immediately stepped to 0 mV to assess the magnitude of the sodium current. Currents elicited at 0 mV were plotted as a function of prepulse potential to allow estimation of the voltage at which 50% of the channels were inactivated (midpoint of inactivation or V1/2). Compounds were tested for their ability to inhibit hNav1.8 sodium channels by activating the channel with a 20 msec voltage step to 0 mV following an 8 second conditioning prepulse to the empirically determined V1/2. Compound effect (% inhibition) was determined by difference in current amplitude before and after application of test compounds. For ease of comparison, “estimated IC50” values were calculated from single point electrophysiology data by the following equation, (tested concentration, uM)×(100-% inhibition/% inhibition). Inhibition values<20% and >80% were excluded from the calculation.
# In some cases electrophysiological assays were conducted with PatchXpress 7000 hardware and associated software (Molecular Devices Corp). All assay buffers and solutions were identical to those used in conventional whole-cell voltage clamp experiments described above. hNav1.8 cells were grown as above to 50%-80% confluency and harvested by trypsinization. Trypsinized cells were washed and resuspended in extracellular buffer at a concentration of 1×10^6 cells/ml. The onboard liquid handling facility of the PatchXpress was used for dispensing cells and application of test compounds. Determination of the voltage midpoint of inactivation was as described for conventional whole-cell recordings. Cells were then voltage-clamped to the empirically determined V1/2 and current was activated by a 20 msec voltage step to 0 mV.
# Estimated IC50 values for the compounds of formula (I) exemplified above are as follows. […]
# T1 sequence (Q9Y5Y9 whole entry): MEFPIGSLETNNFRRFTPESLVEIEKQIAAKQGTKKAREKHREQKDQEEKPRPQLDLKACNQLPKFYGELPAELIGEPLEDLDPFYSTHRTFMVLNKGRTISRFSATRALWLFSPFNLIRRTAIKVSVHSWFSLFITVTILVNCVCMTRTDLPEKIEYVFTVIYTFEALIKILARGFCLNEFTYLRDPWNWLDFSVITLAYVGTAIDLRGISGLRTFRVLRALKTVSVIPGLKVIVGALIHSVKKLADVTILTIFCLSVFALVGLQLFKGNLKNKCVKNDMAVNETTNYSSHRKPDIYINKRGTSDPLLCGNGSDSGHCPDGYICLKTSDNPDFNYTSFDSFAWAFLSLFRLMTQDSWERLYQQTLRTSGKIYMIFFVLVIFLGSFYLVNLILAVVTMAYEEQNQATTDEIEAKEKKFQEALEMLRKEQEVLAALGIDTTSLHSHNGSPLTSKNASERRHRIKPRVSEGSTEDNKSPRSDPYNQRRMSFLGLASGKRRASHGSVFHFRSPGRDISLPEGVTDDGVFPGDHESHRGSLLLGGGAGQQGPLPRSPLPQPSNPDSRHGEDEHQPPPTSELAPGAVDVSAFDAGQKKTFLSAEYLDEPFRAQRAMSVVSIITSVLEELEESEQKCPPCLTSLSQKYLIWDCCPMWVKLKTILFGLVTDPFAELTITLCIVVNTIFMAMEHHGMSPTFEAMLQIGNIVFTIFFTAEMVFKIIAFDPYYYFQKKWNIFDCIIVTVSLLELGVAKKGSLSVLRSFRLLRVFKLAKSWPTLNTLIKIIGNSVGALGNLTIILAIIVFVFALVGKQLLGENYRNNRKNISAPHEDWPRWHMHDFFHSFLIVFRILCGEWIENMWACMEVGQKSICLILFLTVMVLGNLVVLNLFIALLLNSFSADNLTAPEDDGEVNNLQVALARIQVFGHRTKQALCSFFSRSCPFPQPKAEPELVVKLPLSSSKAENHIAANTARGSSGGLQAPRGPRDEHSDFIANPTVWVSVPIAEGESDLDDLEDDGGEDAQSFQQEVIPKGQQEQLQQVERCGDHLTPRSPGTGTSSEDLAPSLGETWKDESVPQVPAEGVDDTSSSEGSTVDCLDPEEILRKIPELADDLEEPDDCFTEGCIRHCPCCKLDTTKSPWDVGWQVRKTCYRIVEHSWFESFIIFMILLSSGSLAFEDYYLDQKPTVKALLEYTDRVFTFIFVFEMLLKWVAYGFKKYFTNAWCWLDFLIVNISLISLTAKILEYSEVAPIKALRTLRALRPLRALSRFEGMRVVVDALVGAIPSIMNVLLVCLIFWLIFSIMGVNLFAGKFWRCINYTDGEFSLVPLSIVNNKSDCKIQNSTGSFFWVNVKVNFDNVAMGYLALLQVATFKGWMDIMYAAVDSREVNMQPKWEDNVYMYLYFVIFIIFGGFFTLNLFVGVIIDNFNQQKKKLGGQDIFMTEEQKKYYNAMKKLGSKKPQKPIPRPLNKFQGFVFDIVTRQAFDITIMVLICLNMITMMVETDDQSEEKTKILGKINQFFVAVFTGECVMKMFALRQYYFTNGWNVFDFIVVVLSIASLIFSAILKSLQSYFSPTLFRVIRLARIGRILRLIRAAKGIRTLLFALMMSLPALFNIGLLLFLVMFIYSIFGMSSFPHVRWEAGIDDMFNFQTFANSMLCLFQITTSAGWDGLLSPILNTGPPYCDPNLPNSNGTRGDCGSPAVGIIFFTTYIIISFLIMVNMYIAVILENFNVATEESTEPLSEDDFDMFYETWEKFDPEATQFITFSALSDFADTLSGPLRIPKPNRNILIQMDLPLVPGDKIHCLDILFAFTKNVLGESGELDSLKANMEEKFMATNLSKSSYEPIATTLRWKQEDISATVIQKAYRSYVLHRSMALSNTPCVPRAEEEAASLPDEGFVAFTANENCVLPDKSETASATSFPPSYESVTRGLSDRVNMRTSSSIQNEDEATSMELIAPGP
row,SMILES,IC50 [µM]
1,"CC[C@H](N)c1nc2cc(-c3ccc(C#N)cc3)ccc2[nH]1 [Example 81, 4-{2-[(1S)-1-Aminopropyl]-1H-benzimidazol-5-yl}benzonitrile]",0.0828
2,"CO[C@H](C)[C@H](N)c1nc2cc(-c3ccc(C#N)c(F)c3)ccc2[nH]1 [Example 85, 4-{2-[(1R,2R)-1-Amino-2-methoxypropyl]-1H-benzimidazol-5-yl}-2-fluorobenzonitrile]",0.0105
3,"CO[C@H](C)[C@H](N)c1nc2cc(-c3cc(F)c(C#N)c(F)c3)ccc2[nH]1 [Example 87, 4-{2-[(1R,2R)-1-Amino-2-methoxypropyl]-1H-benzimidazol-5-yl}-2,6-difluorobenzonitrile]",1.33
4,"C[C@@H](O)[C@H](N)c1nc2cc(-c3ccc(C#N)c(C#N)c3)ccc2[nH]1 [Example 88, 4-{2-[(1R,2R)-1-Amino-2-hydroxypropyl]-1H-benzimidazol-5-yl}benzene-1,2-dicarbonitrile]",0.993
5,"C[C@@H](O)[C@H](N)c1nc2cc(-c3cc(F)c(C#N)c(F)c3)ccc2[nH]1 [Example 89, 4-{2-[(1R,2R)-1-Amino-2-hydroxypropyl]-1H-benzimidazol-5-yl}-2,6-difluorobenzonitrile]",2.39
6,"CO[C@H](C)[C@H](N)c1nc2cc(-c3ccc(C#N)cc3F)ccc2[nH]1 [Example 90, 4-{2-[(1R,2R)-1-Amino-2-methoxypropyl]-1H-benzimidazol-5-yl}-3-fluorobenzonitrile]",0.0187
7,"CO[C@H](C)[C@H](N)c1nc2cc(-c3ccc(C#N)cc3)ccc2[nH]1 [Example 92, 4-{2-[(1R,2R)-1-Amino-2-methoxypropyl]-1H-benzimidazol-5-yl}benzonitrile]",0.0175
8,"CC(C)c1ccc2[nH]c([C@@H](N)CC(N)=O)nc2c1 [Example 95, (3S)-3-Amino-3-[5-(propan-2-yl)-1H-benzimidazol-2-yl]propanamide]",3.31
9,"C[C@@H](O)[C@H](N)c1nc2cc(-c3ccc(C#N)cc3F)ccc2[nH]1 [Example 101, 4-{2-[(1R,2R)-1-Amino-2-hydroxypropyl]-1H-benzimidazol-5-yl}-3-fluorobenzonitrile]",0.2
10,"CC(C)(C)c1ccc2[nH]c([C@@H](N)C(C)(C)O)nc2c1 [Example 102, (1R)-1-Amino-1-(5-tert-butyl-1H-benzimidazol-2-yl)-2-methylpropan-2-ol]",0.071
11,"[2H][13C]([2H])([2H])[C@@H](C(N)=O)[C@H](N)c1nc2cc(C(C)(C)C)ccc2[nH]1 [Example 105, (2R,3S)-3-Amino-3-(5-tert-butyl-1H-benzimidazol-2-yl)-2-(^13CD3-methyl)propanamide]",0.0699
12,"C[C@H](OC(N)=O)[C@H](N)c1nc2cc(C(C)(C)C)ccc2[nH]1 [Example 106, (1R,2S)-1-Amino-1-(5-tert-butyl-1H-benzimidazol-2-yl)propan-2-yl carbamate]",0.035
13,"C[C@@H](OC(N)=O)[C@H](N)c1nc2cc(C(C)(C)C)ccc2[nH]1 [Example 107, (1R,2R)-1-Amino-1-(6-tert-butyl-1H-benzimidazol-2-yl)propan-2-yl carbamate]",0.356

# More lines, now with the values ahead:
row,IC50 [µM],SMILES
1,0.483,"CO[C@H](C)[C@H](N)c1nc2cc(-c3ccccc3C#N)ccc2[nH]1 [Example 77, 2-{2-[(1R,2R)-1-Amino-2-methoxypropyl]-1H-benzimidazol-5-yl}benzonitrile]"
2,0.0593,"C[C@@H](O)[C@H](N)c1nc2cc(C(C)(C)C)ccc2[nH]1 [Example 78, (1R,2R)-1-Amino-1-(5-tert-butyl-1H-benzimidazol-2-yl)propan-2-ol]"
3,0.168,"CN[C@H](c1nc2cc(C(C)(C)C)ccc2[nH]1)[C@@H](C)O [Example 79, (1R,2R)-1-(5-tert-Butyl-1H-benzimidazol-2-yl)-1-(methylamino)propan-2-ol]"
4,0.0876,"CC(C)(C)c1ccc2[nH]c([C@](C)(N)CO)nc2c1 [Example 80, (2S)-2-Amino-2-(5-tert-butyl-1H-benzimidazol-2-yl)propan-1-ol]"
5,0.323,"N#Cc1ccc(-c2ccc3[nH]c([C@@H](N)CO)nc3c2)cc1 [Example 82, 4-{2-[(1R)-1-Amino-2-hydroxyethyl]-1H-benzimidazol-5-yl}benzonitrile]"
6,0.872,"CO[C@H](C)[C@@H](N)c1nc2cc(C(C)(C)C)ccc2[nH]1 [Example 83, (1S,2R)-1-(5-tert-Butyl-1H-benzimidazol-2-yl)-2-methoxypropan-1-amine]"
7,0.0819,"CO[C@H](C)[C@H](N)c1nc2cc(-c3ccc(C#N)cc3Cl)ccc2[nH]1 [Example 84, 4-{2-[(1R,2R)-1-Amino-2-methoxypropyl]-1H-benzimidazol-5-yl}-3-chlorobenzonitrile]"
8,0.111,"CO[C@H](C)[C@H](N)c1nc2cc(-c3ccc(C#N)cc3C(F)(F)F)ccc2[nH]1 [Example 86, 4-{2-[(1R,2R)-1-Amino-2-methoxypropyl]-1H-benzimidazol-5-yl}-3-(trifluoromethyl)-benzonitrile]"
9,0.666,"CO[C@H](C)[C@H](N)c1nc2cc(-c3ccc(C#N)cc3)c(F)cc2[nH]1 [Example 91, 4-{2-[(1R,2R)-1-Amino-2-methoxypropyl]-6-fluoro-1H-benzimidazol-5-yl}benzonitrile]"
10,0.746,"CO[C@@H](C)[C@@H](N)c1nc2cc(-c3ccc(C#N)cc3)ccc2[nH]1 [Example 93, 4-{2-[(1S,2S)-1-Amino-2-methoxypropyl]-1H-benzimidazol-5-yl}benzonitrile]"
11,1.08,"CO[C@@H](C)[C@@H](N)c1nc2cc(C(C)(C)C)ccc2[nH]1 [Example 94, (1S,2S)-1-(5-tert-Butyl-1H-benzimidazol-2-yl)-2-methoxypropan-1-amine]"
12,0.188,"CO[C@H](C)[C@H](N)c1nc2cc(CC(C)(C)C)c(F)cc2[nH]1 [Example 96, (1R,2R)-1-[5-(2,2-Dimethylpropyl)-5-fluoro-1H-benzimidazol-2-yl]-2-methoxypropan-1-amine]"
13,0.151,"CC[C@@H](N)c1nc2cc(C(C)(C)C)ccc2[nH]1 [Example 97, (1R)-1-(5-tert-Butyl-1H-benzimidazol-2-yl)propan-1-amine]"
14,1.35,"C[C@@H](O)[C@H](N)c1nc2c(F)c(-c3ccc(C#N)cc3)ccc2[nH]1 [Example 98, 4-{2-[(1R,2R)-1-Amino-2-hydroxypropyl]-4-fluoro-1H-benzimidazol-5-yl}benzonitrile]"
15,2.49,"C[C@@H](O)[C@H](N)c1nc2c(Cl)c(-c3ccc(C#N)cc3)ccc2[nH]1 [Example 99, 4-{2-[(1R,2R)-1-Amino-2-hydroxypropyl]-4-chloro-1H-benzimidazol-5-yl}benzonitrile]"
16,0.0825,"C[C@@H](O)[C@H](N)c1nc2cc(-c3ccc(C#N)cc3C(F)(F)F)ccc2[nH]1 [Example 100, 4-{2-[(1R,2R)-1-Amino-2-hydroxypropyl]-1H-benzimidazol-5-yl}-3-(trifluoromethyl)benzonitrile]"
17,0.207,"CNC(=O)[C@H](C)[C@H](N)c1nc2cc(C(C)(C)C)ccc2[nH]1 [Example 108, (2R,3S)-3-Amino-3-(6-tert-butyl-1H-benzimidazol-2-yl)-N,2-dimethylpropanamide]"
18,0.0561,"C[C@@H](C(N)=O)[C@H](N)c1nc2cc(-c3ccc(C#N)c(F)c3)ccc2[nH]1 [Example 109, (2R,3S)-3-Amino-3-[5-(4-cyano-3-fluorophenyl)-1H-benzimidazol-2-yl]-2-methylpropanamide]"
19,0.233,"C[C@@H](C(N)=O)[C@H](N)c1nc2c(Cl)c(-c3ccc(C#N)c(F)c3)ccc2[nH]1 [Example 110, (2R,3S)-3-Amino-3-[4-chloro-5-(4-cyano-3-fluorophenyl)-1H-benzimidazol-2-yl]-2-methylpropanamide]"
